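Protocol summary: plate cells (96-well), add compound at 5 concentrations, incubate 48 h, interpolate endpoints linearly. TGI: concentration producing complete growth inhibition.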
Key:
Assay in all cases: DTP human tumour cell line panel, 48 h
A498 renal = test system: A498 renal
A549 NSCLC = test system: A549 NSCLC
ACHN renal = test system: ACHN renal
BT-549 breast = test system: BT-549 breast
CCRF-CEM leukemia = test system: CCRF-CEM leukemia
COLO 205 colon = test system: COLO 205 colon
DU-145 prostate = test system: DU-145 prostate
EKVX NSCLC = test system: EKVX NSCLC
HCC-2998 colon = test system: HCC-2998 colon
HCT-116 colon = test system: HCT-116 colon
HCT-15 colon = test system: HCT-15 colon
HL-60(TB) leukemia = test system: HL-60(TB) leukemia
HOP-62 NSCLC = test system: HOP-62 NSCLC
HOP-92 NSCLC = test system: HOP-92 NSCLC
HS 578T breast = test system: HS 578T breast
HT29 colon = test system: HT29 colon
IGROV1 ovarian = test system: IGROV1 ovarian
K-562 leukemia = test system: K-562 leukemia
KM12 colon = test system: KM12 colon
LOX IMVI melanoma = test system: LOX IMVI melanoma
M14 melanoma = test system: M14 melanoma
MALME-3M melanoma = test system: MALME-3M melanoma
MCF7 breast = test system: MCF7 breast
MDA-MB-231 breast = test system: MDA-MB-231 breast
MDA-MB-435 = test system: MDA-MB-435
MDA-N = test system: MDA-N
MOLT-4 leukemia = test system: MOLT-4 leukemia
NCI-H23 lung = test system: NCI-H23 lung
NCI-H460 lung = test system: NCI-H460 lung
NCI-H522 lung = test system: NCI-H522 lung
NCI/ADR-RES ovarian = test system: NCI/ADR-RES ovarian
OVCAR-3 ovarian = test system: OVCAR-3 ovarian
OVCAR-4 ovarian = test system: OVCAR-4 ovarian
OVCAR-5 ovarian = test system: OVCAR-5 ovarian
OVCAR-8 ovarian = test system: OVCAR-8 ovarian
PC-3 prostate = test system: PC-3 prostate
RPMI-8226 leukemia = test system: RPMI-8226 leukemia
RXF 393 renal = test system: RXF 393 renal
SF-268 CNS = test system: SF-268 CNS
SF-295 CNS = test system: SF-295 CNS
SF-539 CNS = test system: SF-539 CNS
SK-MEL-2 melanoma = test system: SK-MEL-2 melanoma
SK-MEL-28 melanoma = test system: SK-MEL-28 melanoma
SK-MEL-5 melanoma = test system: SK-MEL-5 melanoma
SK-OV-3 ovarian = test system: SK-OV-3 ovarian
SN12C renal = test system: SN12C renal
SNB-19 CNS = test system: SNB-19 CNS
SNB-75 CNS = test system: SNB-75 CNS
SR leukemia = test system: SR leukemia
SW-620 colon = test system: SW-620 colon
T-47D breast = test system: T-47D breast
TK-10 renal = test system: TK-10 renal
U251 CNS = test system: U251 CNS
UACC-257 melanoma = test system: UACC-257 melanoma
UACC-62 melanoma = test system: UACC-62 melanoma
UO-31 renal = test system: UO-31 renal

Measured: TGI

C=C1CC2(C)CCC(OC(=O)C3(C)OC3C)C(C)(OC(C)=O)C2CC1=C(C)C (stereo unspecified)
76.1 µM: HL-60(TB) leukemia
> 100 µM: all other assays above

Source: PubChem BioAssay (NCI)
